PubChem BioAssay AID1845209 (Molecular Pharmacology Branch, DTP, NCI, 2023)

System: NCI-H211 tumor spheroids, viability percent test/control
Assay: Anticancer human tumor NCI-H211 cell line growth inhibition;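 also: spheroids exposed to agents for seven days before readout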
Details: spheroids with HUVEC and MSC; for IC50: curve of first compound; for viability, T/C: stronger effect = lower value
Outline: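 Complex tumor spheroids combined malignant cells with endothelial cells and mesenchymal stem cells. DNA-damaging drugs and DNA repair inhibitors were tested alone and in combination, at half-log dilutions down from clinical Cmax (top 10 microM if Cmax unknown), 0.25% DMSO final.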

[1] = second compound 1 µM, first compound 0.0316 µM
[2] = second compound 1 µM, first compound 0.1 µM
[3] = second compound 1 µM, first compound 0.316 µM
[4] = second compound 1 µM, first compound 1 µM
[5] = second compound 1 µM, first compound 3.16 µM
[6] = second compound 1 µM, first compound 10 µM
[7] = second compound 3.16 µM, first compound 0.0316 µM
[8] = second compound 3.16 µM, first compound 0.1 µM
[9] = second compound 3.16 µM, first compound 0.316 µM
[10] = second compound 3.16 µM, first compound 1 µM
[11] = second compound 3.16 µM, first compound 3.16 µM
[12] = second compound 3.16 µM, first compound 10 µM
[13] = second compound 10 µM, first compound 0.0316 µM
[14] = second compound 10 µM, first compound 0.1 µM
[15] = second compound 10 µM, first compound 0.316 µM
[16] = second compound 10 µM, first compound 1 µM
[17] = second compound 10 µM, first compound 3.16 µM
[18] = second compound 10 µM, first compound 10 µM
[19] = second compound 31.6 µM, first compound 0.0316 µM
[20] = second compound 31.6 µM, first compound 0.1 µM
[21] = second compound 31.6 µM, first compound 0.316 µM
[22] = second compound 31.6 µM, first compound 1 µM
[23] = second compound 31.6 µM, first compound 3.16 µM
[24] = second compound 31.6 µM, first compound 10 µM
[25] = second compound 100 µM, first compound 0.0316 µM
[26] = second compound 100 µM, first compound 0.1 µM
[27] = second compound 100 µM, first compound 0.316 µM
[28] = second compound 100 µM, first compound 1 µM
[29] = second compound 100 µM, first compound 3.16 µM
[30] = second compound 100 µM, first compound 10 µM

SMILES	IC50 (second compound 1 µM)	IC50 (second compound 3.16 µM)	IC50 (second compound 10 µM)	IC50 (second compound 31.6 µM)	IC50 (second compound 100 µM)	viability, T/C [1]	viability, T/C [2]	viability, T/C [3]	viability, T/C [4]	viability, T/C [5]	viability, T/C [6]	viability, T/C [7]	viability, T/C [8]	viability, T/C [9]	viability, T/C [10]	viability, T/C [11]	viability, T/C [12]	viability, T/C [13]	viability, T/C [14]	viability, T/C [15]	also measured
Cc1cc(C)c(CNC(=O)c2cc(-c3ccc(CN4CCOCC4)cc3)cc3c2cnn3C2CCCC2)c(=O)[nH]1 + Cn1nnc2c(C(N)=O)ncn2c1=O	5.6 µM	8.08 µM	2.06 µM	0.081 µM	< 0.0316 µM	92.3%	81.4%	70%	70.6%	72.7%	32.3%	95.3%	94.7%	84%	86.7%	71.3%	45%	95.4%	93.2%	66.7%	viability, T/C [16]: 68.7%; viability, T/C [17]: 37.9%; viability, T/C [18]: 36.8%; viability, T/C [19]: 58.4%; viability, T/C [20]: 47.4%; viability, T/C [21]: 35.1%; viability, T/C [22]: 33.7%; viability, T/C [23]: 10.6%; viability, T/C [24]: 19.9%; viability, T/C [25]: 33.6%; viability, T/C [26]: 21.7%; viability, T/C [27]: 18.9%; viability, T/C [28]: 16.3%; viability, T/C [29]: 10.4%; viability, T/C [30]: 7.54%
COc1ccc([C@@H](O)c2cc(-c3ncnc4cc(N5CCOCC5)ccc34)c(F)cc2Cl)nn1 + Cn1nnc2c(C(N)=O)ncn2c1=O	6.28 µM	5.81 µM	3.89 µM	< 0.0316 µM	< 0.0316 µM	102%	102%	90.3%	74.5%	85.3%	31.5%	88.9%	100%	105%	69.4%	73.2%	33.3%	99%	88.6%	84%	viability, T/C [16]: 71.9%; viability, T/C [17]: 60.7%; viability, T/C [18]: 21.7%; viability, T/C [19]: 41.1%; viability, T/C [20]: 38.5%; viability, T/C [21]: 35.1%; viability, T/C [22]: 34.6%; viability, T/C [23]: 21.1%; viability, T/C [24]: 7.82%; viability, T/C [25]: 21.6%; viability, T/C [26]: 19.3%; viability, T/C [27]: 15.9%; viability, T/C [28]: 8.08%; viability, T/C [29]: 5.69%; viability, T/C [30]: 2.16%
